According to paper PMC6820788, “Structural insights of human mitofusin-2 into mitochondrial fusion and CMT2A onset” (Nature Communications, 2019):
Substitutions are numbered along the chain they refer to. Names may count otherwise. Values belong to the molecule of their own block, whether it stands above or below them.

Columns and labels:
MFN2IM [1] = molecular target: T1, MFN2IM (Homo sapiens, UniProt O95140, DEL401-705); experiment: ITC; format: binding
T1 construct: gene MFN2; deletion of residues 1-21 and 401-705 (G domain + HD1); E. coli; N-terminal His6 cut by PreScission
T1 sequence (O95140 22-400): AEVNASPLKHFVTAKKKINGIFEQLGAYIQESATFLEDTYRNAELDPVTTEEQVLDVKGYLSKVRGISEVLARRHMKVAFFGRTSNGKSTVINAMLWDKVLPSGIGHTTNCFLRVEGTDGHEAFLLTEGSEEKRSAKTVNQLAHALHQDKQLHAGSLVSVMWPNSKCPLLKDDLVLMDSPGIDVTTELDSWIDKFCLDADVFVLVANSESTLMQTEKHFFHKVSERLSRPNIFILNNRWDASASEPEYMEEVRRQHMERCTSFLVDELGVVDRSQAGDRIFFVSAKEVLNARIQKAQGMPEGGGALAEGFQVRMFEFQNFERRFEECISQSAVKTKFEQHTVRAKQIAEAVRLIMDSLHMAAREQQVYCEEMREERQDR
T1 sequence (O95140 706-757): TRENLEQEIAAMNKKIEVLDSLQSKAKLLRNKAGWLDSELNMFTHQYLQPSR

MFN1IM [2] = molecular target: T2, MFN1IM (Homo sapiens, UniProt Q8IWA4, DEL365-694); experiment: ITC; format: binding
T2 construct: gene MFN1; internally truncated (residues 365-694 removed, G domain + HD1); E. coli; His6 cut by PreScission
T2 sequence (Q8IWA4 1-364): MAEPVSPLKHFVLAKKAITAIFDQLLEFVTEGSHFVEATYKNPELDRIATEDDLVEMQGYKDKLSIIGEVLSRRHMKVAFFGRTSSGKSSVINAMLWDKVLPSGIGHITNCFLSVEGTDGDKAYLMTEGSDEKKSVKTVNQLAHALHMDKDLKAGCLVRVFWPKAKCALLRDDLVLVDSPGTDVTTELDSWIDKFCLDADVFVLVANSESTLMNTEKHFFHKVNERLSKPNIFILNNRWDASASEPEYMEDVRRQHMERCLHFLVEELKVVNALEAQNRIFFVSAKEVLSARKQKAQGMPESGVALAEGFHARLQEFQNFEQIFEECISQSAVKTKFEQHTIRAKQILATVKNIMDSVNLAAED
T2 sequence (Q8IWA4 695-741): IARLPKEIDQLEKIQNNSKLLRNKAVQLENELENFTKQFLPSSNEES

mouse MFN1IM (mm) = molecular target: T3, mouse MFN1IM (mm) (Mus musculus, UniProt Q811U4); experiment: GTP hydrolysis, HPLC; format: biochemical; details: 37 °C, pH 7.5, 150 mM KCl, 5 mM MgCl2
T3 construct: gene Mfn1; internally truncated counterpart of human MFN1IM
T3 sequence (Q811U4 1-364 limits assumed): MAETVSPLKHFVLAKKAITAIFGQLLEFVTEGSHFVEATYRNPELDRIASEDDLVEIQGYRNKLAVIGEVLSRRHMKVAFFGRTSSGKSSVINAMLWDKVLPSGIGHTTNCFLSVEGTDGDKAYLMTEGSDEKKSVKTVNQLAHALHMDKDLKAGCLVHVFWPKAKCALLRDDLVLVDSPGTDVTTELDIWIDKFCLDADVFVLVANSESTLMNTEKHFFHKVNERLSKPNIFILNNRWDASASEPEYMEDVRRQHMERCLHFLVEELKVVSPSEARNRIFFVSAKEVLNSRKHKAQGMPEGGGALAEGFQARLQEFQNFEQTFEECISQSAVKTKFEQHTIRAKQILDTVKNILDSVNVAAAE
T3 sequence (Q811U4 695-741 limits assumed): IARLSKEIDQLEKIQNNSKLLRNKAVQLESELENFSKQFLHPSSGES

mouse MFN2IM (mm) = molecular target: T4, mouse MFN2IM (mm) (Mus musculus, UniProt Q80U63); experiment: GTP hydrolysis, HPLC; format: biochemical; details: 37 °C, pH 7.5, 150 mM KCl, 5 mM MgCl2
T4 construct: gene Mfn2; internally truncated counterpart of human MFN2IM
T4 sequence (Q80U63 22-400 limits assumed): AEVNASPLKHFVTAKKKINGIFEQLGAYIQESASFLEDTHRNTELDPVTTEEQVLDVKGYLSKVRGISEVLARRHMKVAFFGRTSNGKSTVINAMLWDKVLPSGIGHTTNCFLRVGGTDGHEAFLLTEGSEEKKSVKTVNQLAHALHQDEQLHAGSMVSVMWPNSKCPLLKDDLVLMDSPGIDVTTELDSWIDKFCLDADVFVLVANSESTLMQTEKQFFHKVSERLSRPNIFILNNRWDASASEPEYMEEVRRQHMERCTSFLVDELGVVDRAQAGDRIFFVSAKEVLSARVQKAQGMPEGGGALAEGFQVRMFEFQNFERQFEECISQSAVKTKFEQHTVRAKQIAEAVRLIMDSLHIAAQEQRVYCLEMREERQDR
T4 sequence (Q80U63 706-757 limits assumed): T1 sequence (O95140 706-757) with E3D, I16V, V18A, K25R

MFN1IM [3] = molecular target: T5, MFN1IM (Homo sapiens, UniProt Q8IWA4, I108T/DEL365-694); experiment: stopped-flow fluorescence, displacement by unlabeled GDP; format: binding; details: labelled compound; pH 7.5, 150 mM KCl, 5 mM MgCl2
T5 construct: gene MFN1; internally truncated (residues 365-694 removed, G domain + HD1); E. coli; His6 cut by PreScission
T5 sequence (Q8IWA4 1-364 I108T): T2 sequence (Q8IWA4 1-364) with I108T
T5 sequence (Q8IWA4 695-741): T2 sequence (Q8IWA4 695-741)

MFN2IM [4] = molecular target: T6, MFN2IM (Homo sapiens, UniProt O95140, T129I/DEL401-705); experiment: as above; format: binding; details: labelled compound; pH 7.5, 150 mM KCl, 5 mM MgCl2
T6 construct: gene MFN2; deletion of residues 1-21 and 401-705 (G domain + HD1); E. coli; N-terminal His6 cut by PreScission
T6 sequence (O95140 22-400 T129I): T1 sequence (O95140 22-400) with T108I
T6 sequence (O95140 706-757): T1 sequence (O95140 706-757)

MFN1IM [5] = molecular target: T2, MFN1IM; experiment: stopped-flow fluorescence, nucleotide exchange; format: binding; details: labelled compound; protein preincubated with GDP; pH 7.5, 150 mM KCl, 5 mM MgCl2
MFN2IM [6] = molecular target: T1, MFN2IM; experiment: stopped-flow fluorescence, nucleotide exchange; format: binding; details: labelled compound; protein preincubated with GDP; pH 7.5, 150 mM KCl, 5 mM MgCl2
[7] = molecular target: the molecule itself; experiment: SEC-RALS; analytical gel filtration (Superdex 200 10/300) coupled to right-angle light scattering; 50 μM protein incubated with 500 μM GTP or GDP∙BeF3− for 2 h at room temperature; 20 mM HEPES pH 7.5, 150 mM KCl, 5 mM MgCl2, 1 mM DTT
MBP-fused MFN2IM = molecular target: T7, MBP-fused MFN2IM (human, UniProt O95140 22-757, deletions of residues 1–21 and 401–705); experiment: native gel or EMSA; blue native PAGE at 4 °C; MBP-tagged MFN1IM/MFN2IM mixed with 10 μM partner and tenfold GDP∙BeF3−, 2 h at room temperature; Coomassie stain; details: both partners purified
T7 construct: human mitofusin-2 (MFN2) with residues 1-21 and 401-705 deleted (MFN2IM); also called MBP-tagged MFN2IM; wild-type MFN2IM (native PAGE)
T7 sequence (looked up): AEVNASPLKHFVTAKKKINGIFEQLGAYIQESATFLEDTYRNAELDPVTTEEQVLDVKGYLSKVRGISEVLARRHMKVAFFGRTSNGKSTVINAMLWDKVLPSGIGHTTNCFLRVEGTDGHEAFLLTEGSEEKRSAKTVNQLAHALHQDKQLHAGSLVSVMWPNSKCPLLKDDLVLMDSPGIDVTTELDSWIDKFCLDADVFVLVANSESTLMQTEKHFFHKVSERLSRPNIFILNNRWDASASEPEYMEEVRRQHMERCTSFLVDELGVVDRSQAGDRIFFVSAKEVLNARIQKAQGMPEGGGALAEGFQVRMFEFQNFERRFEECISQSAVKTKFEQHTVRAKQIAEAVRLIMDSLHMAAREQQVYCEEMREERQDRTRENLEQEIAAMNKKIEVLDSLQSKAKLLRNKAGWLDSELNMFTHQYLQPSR

Kd (MFN2IM [1]): 14.4 ± 0.63 µM
Kd (MFN1IM [2]): 217 ± 23.8 µM
Molecule: Nc1nc2c(ncn2[C@@H]2O[C@H](COP(=O)(O)OP(=O)(O)O)[C@@H](O)[C@H]2O)c(=O)[nH]1 [GDP]

Molecule: Nc1nc2c(ncn2[C@@H]2O[C@H](COP(=O)(O)OP(=O)(O)OP(=O)(O)O)[C@@H](O)[C@H]2O)c(=O)[nH]1 [GTP]
GTP turnover rate (mouse MFN1IM (mm)): Mouse MFN1IM and MFN2IM showed weak GTPase hydrolysis
GTP turnover rate (mouse MFN2IM (mm)): Mouse MFN1IM and MFN2IM showed weak GTPase hydrolysis

Kd (MFN2IM [1]): 3.3 ± 0.52 µM
Kd (MFN1IM [2]): 83 ± 5.34 µM
Molecule: Nc1nc2c(ncn2[C@@H]2O[C@H](COP(=O)(O)OP(=O)(O)OP(O)(O)=S)[C@@H](O)[C@H]2O)c(=O)[nH]1 [GTPγS]

Molecule: CNc1ccccc1C(=O)O[C@H]1[C@@H](O)[C@H](n2cnc3c(=O)[nH]c(N)nc32)O[C@@H]1COP(=O)(O)OP(=O)(O)O [mant-GDP]
GDP off-rate (MFN1IM [3]): GDP off-rates of MFN2IM(T129I) and MFN1IM(I108T)
GDP off-rate (MFN2IM [4]): GDP off-rates of MFN2IM(T129I) and MFN1IM(I108T)

Molecule: CNc1ccccc1C(=O)O[C@H]1[C@@H](O)[C@H](n2cnc3c(=O)[nH]c(N)nc32)O[C@@H]1COP(=O)(O)OP(=O)(O)OP(=O)(O)O [mant-GTP]
stopped-flow fluorescence, nucleotide exchange (MFN1IM [5]): G domain dimerization greatly reduced the mant-GTP reload rate of both MFN2IM and MFN1IM
stopped-flow fluorescence, nucleotide exchange (MFN2IM [6]): MFN2IM bound more mant-GTP over time due to a higher affinity to GTP

B1: MFN2IM (modified human MFN2 construct with deletions of residues 1–21 and 401–705) (domain or fragment, UniProt O95140 22-757, looked up)
chain: T7 sequence (looked up)
notes: human mitofusin-2 (MFN2) with residues 1-21 and 401-705 deleted (MFN2IM); Theoretical molecular mass 52.6 kDa; also called truncated human MFN2; wild-type MFN2IM; source: E. coli Rosetta (DE3), purified (Ni-NTA, His6-tag removed with PreScission protease, second Ni-NTA, gel filtration); not shown: His6, N-terminal, cleaved
stoichiometry N [7]: 2

B2: MFN2IM R364P (CMT2A-related mutant) (domain or fragment, human, UniProt O95140 22-757, looked up)
chain: T7 sequence (looked up) with R343P
notes: human mitofusin-2 (MFN2) with residues 1-21 and 401-705 deleted (MFN2IM), CMT2A-related point mutant; source: E. coli Rosetta (DE3), purified; not shown: His6, N-terminal, cleaved
binding result [7]: binds

B3: MFN2IM P251L (CMT2A-related mutant) (domain or fragment, human, UniProt O95140 22-757, looked up)
chain: T7 sequence (looked up) with P230L
notes: as for B2
binding result [7]: binds

B4: MFN2IM L248V (CMT2A-related mutant) (domain or fragment, human, UniProt O95140 22-757, looked up)
chain: T7 sequence (looked up) with L227V
notes: as for B2
binding result [7]: binds

B5: MFN2IM R364W (CMT2A-related mutant) (domain or fragment, human, UniProt O95140 22-757, looked up)
chain: T7 sequence (looked up) with R343W
notes: as for B2
binding result [7]: binds

B6: MFN2IM R94Q (CMT2A-related mutant) (domain or fragment, human, UniProt O95140 22-757, looked up)
chain: T7 sequence (looked up) with R73Q
notes: as for B2
binding result [7]: binds

binding result (MBP-fused MFN2IM): binds
B7: MFN2IM R94W (CMT2A-related mutant) (domain or fragment, human, UniProt O95140 22-757, looked up)
chain: T7 sequence (looked up) with R73W
notes: as for B2
